Measured values reported in ChEMBL document CHEMBL1142027, “In vivo incorporation of an alkyne into proteins in Escherichia coli” (Bioorg Med Chem Lett, 2005).
≈ marks a conversion by molar mass, not a printed value.

System: Escherichia coli
Assay: Inhibitory concentration of compound was determined against Escherichia coli in the absence of alkynyl amino acid 1
Type: functional, organism-based

Compound: O=C(N[C@H](CO)[C@H](O)c1ccc([N+](=O)[O-])cc1)C(Cl)Cl [CHLORAMPHENICOL]
- IC50: 5 µg/mL (≈ 15.5 µM)
